Test results from patent US20110105623A1 (Biogenic Innovations, LLC, priority 2009, published 2011).

Experiments:
[1] = system: Bacillus coagulans; assay: Probiotic growth in media supplemented with MSM; type: cell-based; conditions: […] MSM
Source text: (§1) Plates were then counted. […] Data are presented in Cfu/mL.

[2] = system: Lactobacillus acidophilus; assay: Probiotic growth in media supplemented with MSM; type: cell-based
Source text: as §1

[3] = system: Lactobacillus acidophilus ATCC #4356; assay: Growth and recovery in simulated intestinal tract environment
Description: The pH of the simulated intestinal fluid was 6.8. The microorganisms analyzed included Lactobacillus acidophilus ATCC #4356:
For the Lactobacillus acidophilus, bottled milk was used as the product. One milliliter of a 9 log solution of organism was placed into a 99 mL of bottled milk and mixed by hand shaking. […] The gastric acid was pre-warmed to 35° C. and kept at 35° C. for the duration of the 20 minutes. At the end of the 20 minute period, 10 mL of the simulated gastric acid, Lactobacillus acidophilus and milk mixture was placed into 90 mL of simulated intestinal fluid. The simulated intestinal fluid was pre-warmed to 35° C. and kept at 35° C. during the duration of the study.

Substance: Methylsulfonylmethane [MSM]
- Growth of Bacillus coagulans ([1]; 64 h): 10.97 log10 CFU/mL
- Growth of Bacillus coagulans ([1]; 72 h): 11.05 log10 CFU/mL
- Growth of Lactobacillus acidophilus ([2]; 0.125% MSM, 0 h): 1.37 log10 CFU/mL
- Growth of Lactobacillus acidophilus ([2]; 0.125% MSM, 8 h): 2.19 log10 CFU/mL
- Growth of Lactobacillus acidophilus ([2]; 0.125% MSM, 16 h): 4.83 log10 CFU/mL
- Growth of Lactobacillus acidophilus ([2]; 0.125% MSM, 24 h): 7.14 log10 CFU/mL
- Growth of Lactobacillus acidophilus ([2]; 0.125% MSM, 32 h): 9.15 log10 CFU/mL
- Growth of Lactobacillus acidophilus ([2]; 0.125% MSM, 40 h): 9.53 log10 CFU/mL
- Growth of Lactobacillus acidophilus ([2]; 0.125% MSM, 48 h): 9.59 log10 CFU/mL
- Growth of Lactobacillus acidophilus ([2]; 0.125% MSM, 56 h): 10.16 log10 CFU/mL
- Growth of Lactobacillus acidophilus ([2]; 0.125% MSM, 64 h): 9.40 log10 CFU/mL
- Growth of Lactobacillus acidophilus ([2]; 0.125% MSM, 72 h): 8.56 log10 CFU/mL
- Growth of Lactobacillus acidophilus ([2]; 0.2% MSM, 0 h): 1.37 log10 CFU/mL
- Growth of Lactobacillus acidophilus ([2]; 0.2% MSM, 8 h): 1.43 log10 CFU/mL
- Growth of Lactobacillus acidophilus ([2]; 0.2% MSM, 16 h): 5.74 log10 CFU/mL
- Growth of Lactobacillus acidophilus ([2]; 0.2% MSM, 24 h): 8.19 log10 CFU/mL
- Growth of Lactobacillus acidophilus ([2]; 0.2% MSM, 32 h): 9.85 log10 CFU/mL
- Growth of Lactobacillus acidophilus ([2]; 0.2% MSM, 40 h): 9.50 log10 CFU/mL
- Growth of Lactobacillus acidophilus ([2]; 0.2% MSM, 48 h): 9.32 log10 CFU/mL
- Growth of Lactobacillus acidophilus ([2]; 0.2% MSM, 56 h): 9.26 log10 CFU/mL
- Growth of Lactobacillus acidophilus ([2]; 0.2% MSM, 64 h): 9.37 log10 CFU/mL
- Growth of Lactobacillus acidophilus ([2]; 0.2% MSM, 72 h): 8.36 log10 CFU/mL
- Growth of Lactobacillus acidophilus ([2]; 0.50% MSM, 0 h): 1.30 log10 CFU/mL
- Growth of Lactobacillus acidophilus ([2]; 0.50% MSM, 8 h): 2.01 log10 CFU/mL
- Growth of Lactobacillus acidophilus ([2]; 0.50% MSM, 16 h): 3.82 log10 CFU/mL
- Growth of Lactobacillus acidophilus ([2]; 0.50% MSM, 24 h): 6.47 log10 CFU/mL
- Growth of Lactobacillus acidophilus ([2]; 0.50% MSM, 32 h): 9.15 log10 CFU/mL
- Growth of Lactobacillus acidophilus ([2]; 0.50% MSM, 40 h): 9.58 log10 CFU/mL
- Growth of Lactobacillus acidophilus ([2]; 0.50% MSM, 48 h): 10.45 log10 CFU/mL
- Growth of Lactobacillus acidophilus ([2]; 0.50% MSM, 56 h): 9.33 log10 CFU/mL
- Growth of Lactobacillus acidophilus ([2]; 0.50% MSM, 64 h): 9.53 log10 CFU/mL
- Growth of Lactobacillus acidophilus ([2]; 0.50% MSM, 72 h): 8.57 log10 CFU/mL
- Growth of Lactobacillus acidophilus ([2]; 1% MSM, 0 h): 1.48 log10 CFU/mL
- Growth of Lactobacillus acidophilus ([2]; 1% MSM, 8 h): 2.25 log10 CFU/mL
- Growth of Lactobacillus acidophilus ([2]; 1% MSM, 16 h): 3.79 log10 CFU/mL
- Growth of Lactobacillus acidophilus ([2]; 1% MSM, 24 h): 6.77 log10 CFU/mL
- Growth of Lactobacillus acidophilus ([2]; 1% MSM, 32 h): 9.05 log10 CFU/mL
- Growth of Lactobacillus acidophilus ([2]; 1% MSM, 40 h): 9.49 log10 CFU/mL
- Growth of Lactobacillus acidophilus ([2]; 1% MSM, 48 h): 10.98 log10 CFU/mL
- Growth of Lactobacillus acidophilus ([2]; 1% MSM, 56 h): 10.90 log10 CFU/mL
- Growth of Lactobacillus acidophilus ([2]; 1% MSM, 64 h): 10.34 log10 CFU/mL
- Growth of Lactobacillus acidophilus ([2]; 1% MSM, 72 h): 8.68 log10 CFU/mL
- Growth of Lactobacillus acidophilus ([2]; 5% MSM, 0 h): 1.52 log10 CFU/mL
- Growth of Lactobacillus acidophilus ([2]; 5% MSM, 8 h): 1.37 log10 CFU/mL
- Growth of Lactobacillus acidophilus ([2]; 5% MSM, 16 h): 2.69 log10 CFU/mL
- Growth of Lactobacillus acidophilus ([2]; 5% MSM, 24 h): 5.36 log10 CFU/mL
- Growth of Lactobacillus acidophilus ([2]; 5% MSM, 32 h): 8.91 log10 CFU/mL
- Growth of Lactobacillus acidophilus ([2]; 5% MSM, 40 h): 9.25 log10 CFU/mL
- Growth of Lactobacillus acidophilus ([2]; 5% MSM, 48 h): 10.88 log10 CFU/mL
- Growth of Lactobacillus acidophilus ([2]; 5% MSM, 56 h): 10.01 log10 CFU/mL
- Growth of Lactobacillus acidophilus ([2]; 5% MSM, 64 h): 8.95 log10 CFU/mL
- Growth of Lactobacillus acidophilus ([2]; 5% MSM, 72 h): 6.66 log10 CFU/mL
- Growth of Lactobacillus acidophilus ([2]; […] MSM, 0 h): 1.48 log10 CFU/mL
- Growth of Lactobacillus acidophilus ([2]; […] MSM, 8 h): 2.20 log10 CFU/mL
- Growth of Lactobacillus acidophilus ([2]; […] MSM, 16 h): 4.24 log10 CFU/mL
- Growth of Lactobacillus acidophilus ([2]; […] MSM, 24 h): 5.78 log10 CFU/mL
- Growth of Lactobacillus acidophilus ([2]; […] MSM, 32 h): 9.16 log10 CFU/mL
- Growth of Lactobacillus acidophilus ([2]; […] MSM, 40 h): 9.35 log10 CFU/mL
- Growth of Lactobacillus acidophilus ([2]; […] MSM, 48 h): 10.16 log10 CFU/mL
- Growth of Lactobacillus acidophilus ([2]; […] MSM, 56 h): 11.10 log10 CFU/mL
- Growth of Lactobacillus acidophilus ([2]; […] MSM, 64 h): 11.58 log10 CFU/mL
- Growth of Lactobacillus acidophilus ([2]; […] MSM, 72 h): 8.44 log10 CFU/mL
- Log Growth of Lactobacillus acidophilus ([3]; 5.0% MSM, 20 min Gastric): <1.00 logs
- Log Growth of Lactobacillus acidophilus ([3]; 5.0% MSM, Hour 3, simulated intestinal fluid): 1.62 logs
- Log Growth of Lactobacillus acidophilus ([3]; 5.0% MSM, Hour 8, simulated intestinal fluid): 2.33 logs
- Log Growth of Lactobacillus acidophilus ([3]; 5.0% MSM, Hour 24, simulated intestinal fluid): 6.39 logs
- Log Growth of Lactobacillus acidophilus ([3]; 5.0% MSM, Hour 30, simulated intestinal fluid): 6.63 logs
- Log Growth of Lactobacillus acidophilus ([3]; 5.0% MSM, Hour 36, simulated intestinal fluid): 8.65 logs
- Log Growth of Lactobacillus acidophilus ([3]; 5.0% MSM, Hour 48, simulated intestinal fluid): 10.17 logs
- Log Growth of Lactobacillus acidophilus ([3]; 5.0% MSM, Hour 54, simulated intestinal fluid): 13.33 logs
- Log Growth of Lactobacillus acidophilus ([3]; 5.0% MSM, Hour 60, simulated intestinal fluid): 12.76 logs
- Log Growth of Lactobacillus acidophilus ([3]; 5.0% MSM, Hour 72, simulated intestinal fluid): 12.78 logs
- Log Growth of Lactobacillus acidophilus ([3]; 5.0% MSM, Starting Inoculum): 7.02 logs
- log growth ([3]; 5.0% MSM, hour 36): 8.65 logs
- increase in growth ([3]; 5.0% MSM, period after hour 48): 3.16 logs
- Log Growth of Lactobacillus acidophilus ([3]; […] MSM, 20 min Gastric): <1.00 logs
- Log Growth of Lactobacillus acidophilus ([3]; […] MSM, Starting Inoculum): 6.86 logs
- increase in growth ([3]; […] MSM, hour 36 to 48): 3.65 logs
